Test system: 945468-187-T-J2-PDC spheroids viability
Experiment: Anticancer human tumor 945468-187-T-J2-PDC patient-derived rectal carcinoma cell line growth inhibition [PI3K]
Settings: spheroids with HUVEC and MSC; for IC50: curve of first compound; for viability, T/C: stronger effect = lower value
How it was run: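 Targeted small molecules plus PI3K inhibitors, half-log dose series from Cmax (default top 10 microM), were applied to heterotypic spheroids of cancer cells with HUVEC and MSCs. Viability indicated growth inhibition.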

[1] = second compound 0.0316 µM, first compound 0.0316 µM
[2] = second compound 0.0316 µM, first compound 0.1 µM
[3] = second compound 0.0316 µM, first compound 0.316 µM
[4] = second compound 0.0316 µM, first compound 1 µM
[5] = second compound 0.1 µM, first compound 0.0316 µM
[6] = second compound 0.1 µM, first compound 0.1 µM
[7] = second compound 0.1 µM, first compound 0.316 µM
[8] = second compound 0.1 µM, first compound 1 µM
[9] = second compound 0.316 µM, first compound 0.0316 µM
[10] = second compound 0.316 µM, first compound 0.1 µM
[11] = second compound 0.316 µM, first compound 0.316 µM
[12] = second compound 0.316 µM, first compound 1 µM
[13] = second compound 1 µM, first compound 0.0316 µM
[14] = second compound 1 µM, first compound 0.1 µM
[15] = second compound 1 µM, first compound 0.316 µM
[16] = second compound 1 µM, first compound 1 µM
[17] = second compound 3.16 µM, first compound 0.0316 µM
[18] = second compound 3.16 µM, first compound 0.1 µM
[19] = second compound 3.16 µM, first compound 0.316 µM
[20] = second compound 3.16 µM, first compound 1 µM
[21] = second compound 10 µM, first compound 0.0316 µM
[22] = second compound 10 µM, first compound 0.1 µM
[23] = second compound 10 µM, first compound 0.316 µM
[24] = second compound 10 µM, first compound 1 µM
[25] = second compound 0.0316 µM, first compound 3.16 µM
[26] = second compound 0.0316 µM, first compound 10 µM
[27] = second compound 0.1 µM, first compound 3.16 µM
[28] = second compound 0.1 µM, first compound 10 µM
[29] = second compound 0.316 µM, first compound 3.16 µM
[30] = second compound 0.316 µM, first compound 10 µM
[31] = second compound 1 µM, first compound 3.16 µM
[32] = second compound 1 µM, first compound 10 µM
[33] = second compound 3.16 µM, first compound 3.16 µM
[34] = second compound 3.16 µM, first compound 10 µM
[35] = second compound 10 µM, first compound 3.16 µM
[36] = second compound 10 µM, first compound 10 µM
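Also: spheroids exposed to compounds for seven days before reading.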

In the case of `CCN1CCN(Cc2ccc(Nc3ncc(F)c(-c4cc(F)c5nc(C)n(C(C)C)c5c4)n3)nc2)CC1` + Cc1nc(NC(=O)N2CCCC2C(N)=O)sc1-c1ccnc(C(C)(C)C(F)(F)F)c1, the IC50 (second compound 0.0316 µM) is reported as greater than 1 µM, the IC50 (second compound 0.1 µM) is reported as greater than 1 µM and the IC50 (second compound 0.316 µM) is reported as greater than 1 µM. For the same compound, the IC50 (second compound 1 µM) was greater than 1 µM, the IC50 (second compound 3.16 µM) was 0.753 µM and the IC50 (second compound 10 µM) was 0.322 µM. The viability, T/C (second compound 0.0316 µM, first compound 0.00316 µM) was 84.8%, the viability, T/C (second compound 0.0316 µM, first compound 0.01 µM) was 103% and the viability, T/C [1] was 123%. The viability, T/C [2] was 91.5%, the viability, T/C [3] was 107% and the viability, T/C [4] was 105%. The viability, T/C (second compound 0.1 µM, first compound 0.00316 µM) was 124%, the viability, T/C (second compound 0.1 µM, first compound 0.01 µM) was 104% and the viability, T/C [5] was 131%. It also gave a viability, T/C [6] of 88.9%, a viability, T/C [7] of 103% and a viability, T/C [8] of 76.2%. It also gave a viability, T/C (second compound 0.316 µM, first compound 0.00316 µM) of 103%, a viability, T/C (second compound 0.316 µM, first compound 0.01 µM) of 91.8% and a viability, T/C [9] of 123%. It also gave a viability, T/C [10] of 104%, a viability, T/C [11] of 118% and a viability, T/C [12] of 73.6%. It also gave a viability, T/C (second compound 1 µM, first compound 0.00316 µM) of 118%, a viability, T/C (second compound 1 µM, first compound 0.01 µM) of 108% and a viability, T/C [13] of 115%. The viability, T/C [14] was 108%, the viability, T/C [15] was 96.8% and the viability, T/C [16] was 58.9%. For the same compound, the viability, T/C (second compound 3.16 µM, first compound 0.00316 µM) was 119%, the viability, T/C (second compound 3.16 µM, first compound 0.01 µM) was 92.9% and the viability, T/C [17] was 111%. It also gave a viability, T/C [18] of 93.5%, a viability, T/C [19] of 84.2% and a viability, T/C [20] of 38.7%. It also gave a viability, T/C (second compound 10 µM, first compound 0.00316 µM) of 81.5%, a viability, T/C (second compound 10 µM, first compound 0.01 µM) of 84.4% and a viability, T/C [21] of 94%. For the same compound, the viability, T/C [22] was 66.7%, the viability, T/C [23] was 52.8% and the viability, T/C [24] was 28.1%.

Work on `Cn1ncc(Cl)c1-c1cc(C(=O)NC(CN)Cc2cccc(F)c2)sc1Cl` (stereo unspecified) + Cc1nc(NC(=O)N2CCCC2C(N)=O)sc1-c1ccnc(C(C)(C)C(F)(F)F)c1 yielded an IC50 (second compound 0.0316 µM) greater than 10 µM, an IC50 (second compound 0.1 µM) greater than 10 µM and an IC50 (second compound 0.316 µM) greater than 10 µM. The IC50 (second compound 1 µM) was greater than 10 µM, the IC50 (second compound 3.16 µM) was greater than 10 µM and the IC50 (second compound 10 µM) was greater than 10 µM. It also gave a viability, T/C [1] of 94%, a viability, T/C [2] of 123% and a viability, T/C [3] of 104%. It also gave a viability, T/C [4] of 77.9%, a viability, T/C [25] of 89.8% and a viability, T/C [26] of 71.6%. For the same compound, the viability, T/C [5] was 116%, the viability, T/C [6] was 134% and the viability, T/C [7] was 104%. The viability, T/C [8] was 101%, the viability, T/C [27] was 72.3% and the viability, T/C [28] was 65.9%. For the same compound, the viability, T/C [9] was 102%, the viability, T/C [10] was 104% and the viability, T/C [11] was 124%. The viability, T/C [12] was 92.1%, the viability, T/C [29] was 72.3% and the viability, T/C [30] was 70.9%. It also gave a viability, T/C [13] of 97.4%, a viability, T/C [14] of 92.7% and a viability, T/C [15] of 97.4%. It also gave a viability, T/C [16] of 88.4%, a viability, T/C [31] of 77.9% and a viability, T/C [32] of 54.9%. The viability, T/C [17] was 86.7%, the viability, T/C [18] was 87.7% and the viability, T/C [19] was 88%. The viability, T/C [20] was 75.1%, the viability, T/C [33] was 72.5% and the viability, T/C [34] was 60%. It also gave a viability, T/C [21] of 85.9%, a viability, T/C [22] of 79.8% and a viability, T/C [23] of 92.5%. For the same compound, the viability, T/C [24] was 89%, the viability, T/C [35] was 59.5% and the viability, T/C [36] was 56.6%.

`Cn1nccc1Nc1nccc(-c2ccn(C(CO)c3ccc(Cl)c(F)c3)c(=O)c2)n1` (stereo unspecified) + Cc1nc(NC(=O)N2CCCC2C(N)=O)sc1-c1ccnc(C(C)(C)C(F)(F)F)c1 was tested, and the IC50 (second compound 0.0316 µM) was greater than 10 µM, the IC50 (second compound 0.1 µM) was greater than 10 µM and the IC50 (second compound 0.316 µM) was greater than 10 µM. The IC50 (second compound 1 µM) was greater than 10 µM, the IC50 (second compound 3.16 µM) was greater than 10 µM and the IC50 (second compound 10 µM) was greater than 10 µM. It also gave a viability, T/C [1] of 107%, a viability, T/C [2] of 116% and a viability, T/C [3] of 88.5%. For the same compound, the viability, T/C [4] was 79.3%, the viability, T/C [25] was 103% and the viability, T/C [26] was 72.8%. The viability, T/C [5] was 112%, the viability, T/C [6] was 110% and the viability, T/C [7] was 108%. For the same compound, the viability, T/C [8] was 105%, the viability, T/C [27] was 87.4% and the viability, T/C [28] was 82.1%. The viability, T/C [9] was 129%, the viability, T/C [10] was 107% and the viability, T/C [11] was 98.1%. It also gave a viability, T/C [12] of 89.2%, a viability, T/C [29] of 105% and a viability, T/C [30] of 80.7%. The viability, T/C [13] was 118%, the viability, T/C [14] was 108% and the viability, T/C [15] was 104%. For the same compound, the viability, T/C [16] was 119%, the viability, T/C [31] was 85.2% and the viability, T/C [32] was 74.8%. For the same compound, the viability, T/C [17] was 85.9%, the viability, T/C [18] was 119% and the viability, T/C [19] was 85.6%. For the same compound, the viability, T/C [20] was 82.8%, the viability, T/C [33] was 79.7% and the viability, T/C [34] was 88.5%. For the same compound, the viability, T/C [21] was 76.8%, the viability, T/C [22] was 98.3% and the viability, T/C [23] was 71.1%. The viability, T/C [24] was 86.9%, the viability, T/C [35] was 88% and the viability, T/C [36] was 72.4%.

From PubChem BioAssay AID1963972 (Molecular Pharmacology Branch, DTP, NCI, 2024)
